Data published in patent US6262241A, “Compound for detecting and modulating RNA activity and gene expression” (Isis Pharmaceuticals, Inc., priority 1995, dated 2001).

What was measured:
[1] = test system: nucleases; conditions: cited from earlier work
[2] = test system: Y STRAND 3'-GAG CAU GGY' AAG GCC AGG (SEQ ID NO: 7); type: binding

| Molecule | nuclease resistance [1] | Tm, G-C [2] [C] | delta Tm, G-A [2] [C] | delta Tm, G-Bu [2] [C] | delta Tm, G-G [2] | delta Tm, G-T [2] [C] |
| --- | --- | --- | --- | --- | --- | --- |
| poly(2'-chloro-2'-deoxyuridylic acid) | resistant to various nucleases | – | – | – | – | – |
| Nc1cc2c(ncn2[C@@H]2O[C@H](CO)[C@@H](O)[C@H]2O)c(=O)[nH]1 [3-deazaguanosine] | – | 59 | -2 | -7 | +1 C | -1 |
| poly(2'-chloro-2'-deoxycytidylic acid) | resistant to various nucleases | – | – | – | – | – |
